Measured values from BindingDB's records for doi:10.1021/acs.biochem.6b01308 (Johns Hopkins University, 2017).

Columns and labels:
[1] = molecular target: T1, Iodotyrosine deiodinase 1 [1-1,32-289] (Homo sapiens, UniProt Q6PHW0); experiment: IYD Binding Assay
T1 construct: 1-1,32-289
T1 sequence (Q6PHW0 whole entry): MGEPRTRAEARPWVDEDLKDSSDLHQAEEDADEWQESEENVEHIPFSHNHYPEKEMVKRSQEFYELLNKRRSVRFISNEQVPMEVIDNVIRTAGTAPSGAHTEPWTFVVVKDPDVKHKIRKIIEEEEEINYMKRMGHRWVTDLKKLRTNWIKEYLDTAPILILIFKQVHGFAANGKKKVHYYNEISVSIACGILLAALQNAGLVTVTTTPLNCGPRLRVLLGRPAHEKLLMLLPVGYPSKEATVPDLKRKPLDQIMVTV
Description: (§1) Dissociation constants (Kd) for the ligands of IYD were determined by their ability to quench the fluorescence of the oxidized FMN (FMNox) (λex 450 nm, λem 523 nm) in the active site of IYD as previously described [Hu et al., J. Biol. Chem., 290:590-600; McTamney et al., J. Am. Chem. Soc., 131:14212-14213].

[2] = molecular target: T2, Iodotyrosine deiodinase [1-228] (Haliscomenobacter hydrossis, UniProt F4KU78); experiment: IYD Binding Assay
T2 construct: 1-228
T2 sequence (F4KU78 whole entry): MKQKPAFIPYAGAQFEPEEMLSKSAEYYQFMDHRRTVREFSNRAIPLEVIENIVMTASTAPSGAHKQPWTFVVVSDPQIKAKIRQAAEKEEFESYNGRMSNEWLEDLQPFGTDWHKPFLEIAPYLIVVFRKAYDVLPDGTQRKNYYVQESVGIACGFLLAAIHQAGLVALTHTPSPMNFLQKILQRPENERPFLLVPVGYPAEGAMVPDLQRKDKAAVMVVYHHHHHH
Description: as §1

Structure (SMILES) | Kd [1] | Kd [2]
N[C@@H](Cc1ccc(O)c(I)c1)C(=O)O | 0.09 µM | 8.2 µM
Oc1ccccc1I [2-Iodophenol (2IP)] | 1410 µM | 67 µM
Nc1ccc(O)c(I)c1 [4-Amino-2-iodophenol (4A2IP)] | – | 96 µM
N#Cc1ccc(O)c(I)c1 [4-Cyano-2-iodophenol (2IPCN)] | – | 1.44 µM
O=C(O)c1ccc(O)c(I)c1 [4-Hydroxy-3-iodobenzoic acid (2IPCOOH)] | – | 24.1 µM
